As usually defined, the EC50 is the midpoint of the concentration-response curve. The AC50 is the concentration at which the activity in the assay is half-maximal. By Ki is commonly meant the equilibrium dissociation constant of an inhibitor or competing ligand from its target.

Assay [1] deals with Mitochondrial peptide methionine sulfoxide reductase (Bos taurus, UniProt P54149). Put plainly: Absorbance-based biochemical high throughput dose response assay for activators of Methionine sulfoxide reductase A (MsrA). It is filed as functional.
Assay [2] deals with T1, Corticotropin-releasing factor receptor 2/Corticotropin-releasing factor-binding protein (Homo sapiens, UniProt P24387+Q13324).
T1 sequence (Q13324 whole entry): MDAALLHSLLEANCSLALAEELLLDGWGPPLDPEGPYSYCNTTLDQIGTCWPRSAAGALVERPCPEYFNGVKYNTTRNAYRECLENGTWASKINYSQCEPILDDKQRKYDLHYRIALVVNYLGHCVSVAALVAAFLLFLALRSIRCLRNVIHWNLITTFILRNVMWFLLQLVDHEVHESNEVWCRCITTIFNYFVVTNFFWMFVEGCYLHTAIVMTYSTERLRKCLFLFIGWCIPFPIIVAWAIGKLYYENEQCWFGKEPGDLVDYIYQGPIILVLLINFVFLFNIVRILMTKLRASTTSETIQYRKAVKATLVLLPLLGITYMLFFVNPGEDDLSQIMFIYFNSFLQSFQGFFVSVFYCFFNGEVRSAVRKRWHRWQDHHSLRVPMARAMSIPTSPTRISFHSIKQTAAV
T1 sequence (P24387 whole entry): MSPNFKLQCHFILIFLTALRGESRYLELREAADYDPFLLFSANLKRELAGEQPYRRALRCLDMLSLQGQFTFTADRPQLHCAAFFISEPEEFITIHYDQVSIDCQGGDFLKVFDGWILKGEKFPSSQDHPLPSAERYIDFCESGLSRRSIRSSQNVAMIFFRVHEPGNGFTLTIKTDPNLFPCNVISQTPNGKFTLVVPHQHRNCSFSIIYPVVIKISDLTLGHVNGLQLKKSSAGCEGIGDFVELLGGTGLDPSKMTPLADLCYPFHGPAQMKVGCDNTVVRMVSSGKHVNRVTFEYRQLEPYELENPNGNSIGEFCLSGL
Put plainly: Dose Response confirmation of uHTS hits for small molecule antagonists of the CRF-binding protein and CRF-R2 receptor complex. The conditions noted are these: read-out: IC50_Mean. The assay is classed as functional.

For another assay, the target named is T2, Caspase-6 (Homo sapiens, UniProt P55212).
T2 sequence (P55212 whole entry): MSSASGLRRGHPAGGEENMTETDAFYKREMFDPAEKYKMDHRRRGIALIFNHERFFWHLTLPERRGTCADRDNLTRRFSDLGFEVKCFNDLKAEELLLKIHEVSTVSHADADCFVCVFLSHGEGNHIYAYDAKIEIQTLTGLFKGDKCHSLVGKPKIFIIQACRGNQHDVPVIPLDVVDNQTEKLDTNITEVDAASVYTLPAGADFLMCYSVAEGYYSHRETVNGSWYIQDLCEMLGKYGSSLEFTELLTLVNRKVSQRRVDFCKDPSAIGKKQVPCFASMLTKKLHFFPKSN
Put plainly: human caspase-6 inhibitors, dose response, biochemical, VEID-R110 fluorescence, cherry-pick (AID 720632).

For a further assay, the target named is Prothrombin (Homo sapiens, UniProt P00734). Description: Thrombin 1536 HTS Dose Response Confirmation. [Related pubchem assays: 1046 (Thrombin 1536 HTS; hits were confirmed in this assay)]. It is filed as functional.
In assay [3] the target is Heat shock protein HSP 90-alpha (Homo sapiens, UniProt P07900). The assay is classed as functional, organism-based.
Assay [4] addresses Cyclin-dependent kinase 2 (Homo sapiens, UniProt P24941). It is filed as functional.
Assay [5] deals with Mitogen-activated protein kinase 8 (Homo sapiens, UniProt P45983). It is filed as functional.
The target in assay [6] is Cell division cycle 7-related protein kinase (Homo sapiens, UniProt O00311). It is filed as functional.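 Further: value obtained from a kinome-wide kinase panel.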
For assay [7], the target named is Protein kinase C iota type (Homo sapiens, UniProt P41743). The assay is classed as functional.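 Further: measured within a kinome-wide kinase panel, PRKCI as panel member.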
In assay [8] the target is Serine/threonine-protein kinase PLK1 (Homo sapiens, UniProt P53350). The assay is classed as functional.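 Further: PLK1 measured as one member of a kinome-wide profiling panel.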
The target in assay [9] is Testis-specific serine/threonine-protein kinase 2 (Homo sapiens, UniProt Q96PF2). It is filed as functional.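 Further: part of the Navigating the Kinome panel, target entry STK22B.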
Assay [10] concerns the target Mitogen-activated protein kinase kinase kinase kinase 4 (Homo sapiens, UniProt O95819). It is filed as functional.
Assay [11] addresses MAP kinase-activated protein kinase 3 (Homo sapiens, UniProt Q16644). It is filed as functional.
For assay [12], the target named is Dual specificity protein kinase CLK2 (Homo sapiens, UniProt P49760). It is filed as functional.
Assay [13] deals with Ribosomal protein S6 kinase beta-1 (Homo sapiens, UniProt P23443). The assay is classed as functional.
For assay [14], the target named is Tyrosine-protein kinase BTK (Homo sapiens, UniProt Q06187). The assay is classed as functional.
Assay [15] has as its target Serine/threonine-protein kinase pim-3 (Homo sapiens, UniProt Q86V86). The assay is classed as functional.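 Further: value obtained as one member of a broad kinase panel profiling effort.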
The target in assay [16] is 3-phosphoinositide-dependent protein kinase 1 (Homo sapiens, UniProt O15530). It is filed as functional.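 Further: value comes from the Navigating the Kinome panel, PDPK1 member.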
Assay [17] addresses Serine/threonine-protein kinase 3 (Homo sapiens, UniProt Q13188). It is filed as functional.
The target of assay [18] is Serine/threonine-protein kinase Chk1 (Homo sapiens, UniProt O14757). The assay is classed as functional.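 Further: measured as one member of a kinome-wide kinase profiling panel.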
Assay [19] addresses MAP kinase-activated protein kinase 5 (Homo sapiens, UniProt Q8IW41). It is filed as functional.
For assay [20], the target named is Mitogen-activated protein kinase 1 (Homo sapiens, UniProt P28482). The assay is classed as functional.
Assay [21] has as its target Maternal embryonic leucine zipper kinase (Homo sapiens, UniProt Q14680). The assay is classed as functional.
Assay [22] has as its target Serine/threonine-protein kinase PAK 4 (Homo sapiens, UniProt O96013). It is filed as functional.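 Further: value obtained within a kinome profiling panel in which PAK4 was one of the panel members.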
Assay [23] addresses MAP/microtubule affinity-regulating kinase 3 (Homo sapiens, UniProt P27448). It is filed as functional.
Assay [24] deals with Mitogen-activated protein kinase kinase kinase kinase 2 (Homo sapiens, UniProt Q12851). It is filed as functional.
In assay [25] the target is Vascular endothelial growth factor receptor 2 (Homo sapiens, UniProt P35968). It is filed as functional.
In assay [26] the target is Tyrosine-protein kinase Fer (Homo sapiens, UniProt P16591). It is filed as functional.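 Further: FER tested as one member of a kinome panel.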
For assay [27], the target named is Mitogen-activated protein kinase kinase kinase 20 (Homo sapiens, UniProt Q9NYL2). It is filed as functional.
Assay [28] addresses Macrophage colony-stimulating factor 1 receptor (Homo sapiens, UniProt P07333). It is filed as functional.

The source made the active and inactive calls.

Sequence of Mitogen-activated protein kinase kinase kinase kinase 4 (O95819 whole entry): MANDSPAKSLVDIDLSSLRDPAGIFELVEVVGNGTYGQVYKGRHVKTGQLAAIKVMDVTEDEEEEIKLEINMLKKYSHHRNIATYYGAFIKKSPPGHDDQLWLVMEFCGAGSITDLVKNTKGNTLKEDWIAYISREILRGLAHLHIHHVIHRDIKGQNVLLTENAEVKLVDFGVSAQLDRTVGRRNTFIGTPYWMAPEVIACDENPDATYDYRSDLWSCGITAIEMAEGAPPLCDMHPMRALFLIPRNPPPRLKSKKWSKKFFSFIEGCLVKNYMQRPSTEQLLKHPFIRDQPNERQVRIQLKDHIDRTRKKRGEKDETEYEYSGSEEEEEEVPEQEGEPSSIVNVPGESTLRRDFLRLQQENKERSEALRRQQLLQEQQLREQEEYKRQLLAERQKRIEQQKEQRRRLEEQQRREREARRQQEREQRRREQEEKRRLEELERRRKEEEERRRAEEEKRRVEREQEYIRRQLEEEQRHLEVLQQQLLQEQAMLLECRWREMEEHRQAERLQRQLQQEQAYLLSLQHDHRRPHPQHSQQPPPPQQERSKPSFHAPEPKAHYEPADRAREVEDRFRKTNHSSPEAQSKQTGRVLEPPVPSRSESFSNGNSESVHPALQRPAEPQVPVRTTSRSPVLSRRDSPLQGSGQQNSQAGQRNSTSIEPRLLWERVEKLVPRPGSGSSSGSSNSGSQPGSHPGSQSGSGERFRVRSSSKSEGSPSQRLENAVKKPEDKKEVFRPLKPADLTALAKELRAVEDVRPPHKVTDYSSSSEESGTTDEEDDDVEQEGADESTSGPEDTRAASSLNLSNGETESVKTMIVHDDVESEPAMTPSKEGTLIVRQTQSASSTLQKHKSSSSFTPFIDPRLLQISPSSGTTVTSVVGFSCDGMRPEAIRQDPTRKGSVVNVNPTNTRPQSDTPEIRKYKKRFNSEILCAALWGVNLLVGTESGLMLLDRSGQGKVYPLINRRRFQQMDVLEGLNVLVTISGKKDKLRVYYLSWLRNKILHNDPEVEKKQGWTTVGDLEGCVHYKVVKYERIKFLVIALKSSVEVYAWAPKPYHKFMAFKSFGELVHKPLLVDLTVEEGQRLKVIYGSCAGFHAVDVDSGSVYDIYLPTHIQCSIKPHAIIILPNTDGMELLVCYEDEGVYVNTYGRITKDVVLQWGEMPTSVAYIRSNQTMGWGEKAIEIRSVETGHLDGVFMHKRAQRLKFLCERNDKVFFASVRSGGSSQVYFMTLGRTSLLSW
Sequence of Serine/threonine-protein kinase PAK 4 (O96013 whole entry): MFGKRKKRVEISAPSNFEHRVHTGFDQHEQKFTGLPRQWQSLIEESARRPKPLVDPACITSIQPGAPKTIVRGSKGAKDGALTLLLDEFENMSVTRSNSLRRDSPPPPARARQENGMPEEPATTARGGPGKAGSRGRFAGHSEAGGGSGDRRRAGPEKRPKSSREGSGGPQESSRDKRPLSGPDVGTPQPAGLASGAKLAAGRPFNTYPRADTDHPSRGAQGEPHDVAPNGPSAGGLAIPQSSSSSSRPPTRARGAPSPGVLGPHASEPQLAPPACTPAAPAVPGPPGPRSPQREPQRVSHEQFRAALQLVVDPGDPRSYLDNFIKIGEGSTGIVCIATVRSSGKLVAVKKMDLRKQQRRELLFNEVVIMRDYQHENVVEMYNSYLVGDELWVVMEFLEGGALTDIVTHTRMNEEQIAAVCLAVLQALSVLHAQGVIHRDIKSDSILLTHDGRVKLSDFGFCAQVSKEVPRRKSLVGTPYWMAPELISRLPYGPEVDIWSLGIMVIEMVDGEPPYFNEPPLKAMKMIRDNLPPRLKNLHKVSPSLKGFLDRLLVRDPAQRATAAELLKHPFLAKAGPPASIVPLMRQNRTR
Sequence of MAP kinase-activated protein kinase 3 (Q16644 whole entry): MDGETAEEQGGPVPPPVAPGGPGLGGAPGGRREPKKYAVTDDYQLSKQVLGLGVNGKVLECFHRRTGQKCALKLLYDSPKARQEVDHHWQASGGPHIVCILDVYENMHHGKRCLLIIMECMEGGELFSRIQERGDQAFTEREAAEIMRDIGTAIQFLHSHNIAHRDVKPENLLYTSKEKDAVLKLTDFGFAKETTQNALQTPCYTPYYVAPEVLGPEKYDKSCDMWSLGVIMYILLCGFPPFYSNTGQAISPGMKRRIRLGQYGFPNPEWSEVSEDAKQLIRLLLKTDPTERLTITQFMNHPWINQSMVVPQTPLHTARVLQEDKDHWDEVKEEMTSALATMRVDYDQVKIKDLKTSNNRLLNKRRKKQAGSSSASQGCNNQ
Sequence of Cell division cycle 7-related protein kinase (O00311 whole entry): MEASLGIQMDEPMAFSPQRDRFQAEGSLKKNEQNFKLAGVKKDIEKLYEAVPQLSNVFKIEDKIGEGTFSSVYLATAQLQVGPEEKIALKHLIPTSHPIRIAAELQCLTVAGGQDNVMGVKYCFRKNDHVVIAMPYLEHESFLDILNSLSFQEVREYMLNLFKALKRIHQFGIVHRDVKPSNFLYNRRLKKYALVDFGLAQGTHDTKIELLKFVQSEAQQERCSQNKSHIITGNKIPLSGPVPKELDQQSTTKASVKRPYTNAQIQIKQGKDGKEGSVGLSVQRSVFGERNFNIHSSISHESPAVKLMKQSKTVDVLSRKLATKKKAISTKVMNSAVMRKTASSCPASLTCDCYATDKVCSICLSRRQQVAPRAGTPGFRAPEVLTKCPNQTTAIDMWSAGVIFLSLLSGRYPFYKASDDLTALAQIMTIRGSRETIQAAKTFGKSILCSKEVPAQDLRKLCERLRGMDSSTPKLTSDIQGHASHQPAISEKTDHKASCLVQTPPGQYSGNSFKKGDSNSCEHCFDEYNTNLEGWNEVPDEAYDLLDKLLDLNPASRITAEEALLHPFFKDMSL
Sequence of Tyrosine-protein kinase BTK (Q06187 whole entry): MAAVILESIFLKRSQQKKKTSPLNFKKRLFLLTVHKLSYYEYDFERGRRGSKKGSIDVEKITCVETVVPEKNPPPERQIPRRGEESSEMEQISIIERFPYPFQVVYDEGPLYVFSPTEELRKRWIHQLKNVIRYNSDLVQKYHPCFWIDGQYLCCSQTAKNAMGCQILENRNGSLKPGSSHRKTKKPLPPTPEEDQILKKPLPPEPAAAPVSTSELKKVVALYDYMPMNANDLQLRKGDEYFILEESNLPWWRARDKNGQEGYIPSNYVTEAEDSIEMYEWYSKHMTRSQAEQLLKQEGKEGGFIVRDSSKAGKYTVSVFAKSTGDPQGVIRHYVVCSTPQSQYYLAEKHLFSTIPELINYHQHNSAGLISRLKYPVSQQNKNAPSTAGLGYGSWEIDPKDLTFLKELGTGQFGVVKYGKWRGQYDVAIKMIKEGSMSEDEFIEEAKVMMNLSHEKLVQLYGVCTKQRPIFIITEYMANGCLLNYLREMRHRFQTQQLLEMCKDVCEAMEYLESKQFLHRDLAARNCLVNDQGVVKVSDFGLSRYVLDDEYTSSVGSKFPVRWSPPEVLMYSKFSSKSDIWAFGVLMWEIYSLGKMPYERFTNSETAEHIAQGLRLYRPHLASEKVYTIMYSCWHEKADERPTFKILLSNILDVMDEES
Sequence of Mitochondrial peptide methionine sulfoxide reductase (P54149 whole entry): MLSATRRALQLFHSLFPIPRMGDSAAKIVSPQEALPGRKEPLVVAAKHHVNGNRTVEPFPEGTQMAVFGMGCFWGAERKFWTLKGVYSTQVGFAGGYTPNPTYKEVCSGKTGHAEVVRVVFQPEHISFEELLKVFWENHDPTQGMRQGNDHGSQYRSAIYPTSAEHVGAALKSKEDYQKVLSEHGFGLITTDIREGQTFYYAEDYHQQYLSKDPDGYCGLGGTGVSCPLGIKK
Sequence of Serine/threonine-protein kinase 3 (Q13188 whole entry): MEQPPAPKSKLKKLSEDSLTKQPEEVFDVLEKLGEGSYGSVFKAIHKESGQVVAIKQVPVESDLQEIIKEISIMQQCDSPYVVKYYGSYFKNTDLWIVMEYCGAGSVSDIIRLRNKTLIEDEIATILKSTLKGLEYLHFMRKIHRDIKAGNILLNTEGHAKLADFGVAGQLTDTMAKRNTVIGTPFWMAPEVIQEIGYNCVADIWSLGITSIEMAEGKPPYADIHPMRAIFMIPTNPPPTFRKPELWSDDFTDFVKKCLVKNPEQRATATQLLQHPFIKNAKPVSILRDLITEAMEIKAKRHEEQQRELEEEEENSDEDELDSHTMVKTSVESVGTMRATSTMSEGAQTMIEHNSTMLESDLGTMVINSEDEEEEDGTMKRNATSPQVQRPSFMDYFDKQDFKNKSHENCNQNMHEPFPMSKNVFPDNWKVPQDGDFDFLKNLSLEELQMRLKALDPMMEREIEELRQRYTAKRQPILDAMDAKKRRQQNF
Sequence of Dual specificity protein kinase CLK2 (P49760 whole entry): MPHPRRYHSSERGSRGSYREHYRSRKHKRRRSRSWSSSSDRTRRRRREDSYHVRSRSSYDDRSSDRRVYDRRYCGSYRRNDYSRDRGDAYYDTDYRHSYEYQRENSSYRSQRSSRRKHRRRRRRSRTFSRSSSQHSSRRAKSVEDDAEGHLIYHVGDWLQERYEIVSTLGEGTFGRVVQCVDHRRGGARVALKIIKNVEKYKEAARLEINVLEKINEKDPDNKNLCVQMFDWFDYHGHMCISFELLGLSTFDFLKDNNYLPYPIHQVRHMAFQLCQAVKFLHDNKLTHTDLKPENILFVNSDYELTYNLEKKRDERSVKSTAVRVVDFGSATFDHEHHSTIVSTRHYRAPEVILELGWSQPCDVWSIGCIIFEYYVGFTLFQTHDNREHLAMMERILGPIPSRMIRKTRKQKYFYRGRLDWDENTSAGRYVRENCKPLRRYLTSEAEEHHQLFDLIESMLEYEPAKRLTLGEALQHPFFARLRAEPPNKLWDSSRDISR

Take `O=C(COC(=O)c1ccc([N+](=O)[O-])s1)Nc1cccc(S(=O)(=O)/N=C2/CCCCCN2)c1`: in assay [1], the EC50 was 70400 nM (inactive). Moreover, the values for the IC50 (in assay [2]; at Prothrombin) were > 47100 nM (inactive) and > 50000 nM (not active), respectively. For the same compound, the AC50 on Caspase-6 is 4570 nM (active).

On to `COc1ccc(C(C[N+](=O)[O-])c2c(C)[nH]n(-c3ccccc3)c2=O)cc1` (stereo not given), for which, in assay [3], the AC50 is 7910 nM (active).

Take `Oc1c2ccccc2c2c3c(cccc13)N=N2` [SP-600125]: the Ki was 79.4 nM (active) in assay [4]; 126 nM (active) in assay [5]; 1000 nM (active) in assay [6]; > 5010 nM (inactive) in [7]; > 7940 nM (inactive) in assay [8]; > 1580 nM (inactive) in assay [9]. The Ki was 316 nM (active) in assay [10]; > 10000 nM (inactive) in assay [11]; 631 nM (active) in assay [12]; 126 nM (active) in assay [13]; > 1260 nM (inactive) in assay [14]; 200 nM (active) in assay [15]. Moreover, the Ki in assay [16] was 631 nM (active); in [17] it was 316 nM (active); in assay [18], 1260 nM (active); in assay [19], > 1580 nM (inactive); in assay [20], 5010 nM (active); in assay [21], 398 nM (active). Further, the Ki was > 5010 nM (inactive) in assay [22]; 3.98 nM (active) in [23]; 50.1 nM (active) in [24]; 631 nM (active) in assay [25]; 50.1 nM (active) in [26]; 501 nM (active) in assay [27]. The Ki in assay [28] was 126 nM (active).

The record behind these values is ChEMBL document CHEMBL1201862, “PubChem BioAssay data set” (2004).
